Active and inactive are the calls of the source. The rule behind the calls is not given here.
Legend:
[1] = test system: DU-145; test: Antiproliferative activity against human DU-145 cells incubated for 96 hrs by MTT assay; format: functional, cell-based; details: DU-145, 96 h
[2] = test system: PC-3; test: Antiproliferative activity against human PC-3 cells incubated for 96 hrs by MTT assay; format: functional, cell-based; details: PC-3, 96 h
[3] = test system: A549; test: Antiproliferative activity against human A549 cells incubated for 96 hrs by MTT assay; format: functional, cell-based; details: A549, 96 h
[4] = test system: NCI-H446; test: Antiproliferative activity against human NCI-H446 cells incubated for 96 hrs by MTT assay; format: functional, cell-based; details: NCI-H446, 96 h
[5] = test system: NCI-H1650; test: Antiproliferative activity against human NCI-H1650 cells incubated for 96 hrs by MTT assay; format: functional, cell-based; details: NCI-H1650, 96 h
[6] = test system: MCF7; test: Antiproliferative activity against human MCF7 cells incubated for 96 hrs by MTT assay; format: functional, cell-based; details: MCF7, 96 h
[7] = test system: MDA-MB-231; test: Antiproliferative activity against human MDA-MB-231 cells incubated for 96 hrs by MTT assay; format: functional, cell-based; details: MDA-MB-231, 96 h
[8] = test system: HCT-116; test: Antiproliferative activity against human HCT-116 cells incubated for 96 hrs by MTT assay; format: functional, cell-based; details: HCT-116, 96 h
[9] = test system: HT-29; test: Antiproliferative activity against human HT-29 cells incubated for 96 hrs by MTT assay; format: functional, cell-based; details: HT-29, 96 h
[10] = test system: LNCaP; test: Antiproliferative activity against human LNCaP cells incubated for 96 hrs by MTT assay; format: functional, cell-based
[11] = target: Polyamine deacetylase HDAC10 (Homo sapiens, UniProt Q969S8); test: Inhibition of human HDAC10 incubated for 10 mins followed by fluorogenic substrate addition by fluorescence based analysis
[12] = target: Histone deacetylase 11 (Homo sapiens, UniProt Q96DB2); test: Inhibition of human HDAC11 incubated for 10 mins followed by fluorogenic substrate addition by fluorescence based analysis
[13] = target: Histone deacetylase 1 (Homo sapiens, UniProt Q13547); test: Inhibition of human HDAC1 incubated for 10 mins followed by fluorogenic substrate addition by fluorescence based analysis
[14] = Toxicity in Balb/c mouse assessed as effect on body weight at 8 mg/kg, ip measured upto 40 days; format: organism-based; details: in vivo, 960 h, time < 40 day
[15] = Toxicity in Balb/c mouse assessed as mortality at 8 mg/kg, ip measured upto 40 days; format: organism-based; details: in vivo, 960 h, time < 40 day
[16] = test system: DU-145; test: Antitumor activity against human DU-145 cells xenografted in Balb/c nude mouse model assessed as tumor growth inhibition at 8 mg/kg, ip administered once daily for 40 days relative to control; format: functional; details: DU-145, 960 h, time 40 day, read-out: TGI
[17] = test system: DU-145; test: Induction of apoptosis in human DU-145 cells assessed as apoptotic rate at 1.6 uM measured after 72 hrs by annexin V-FITC and PI staining based flow cytometry analysis relative to control; format: functional
[18] = test system: DU-145; test: Downregulation of HDAC6 expression in human DU-145 cells at 0.8 uM incubated for 24 hrs by Western blot analysis; format: functional, cell-based

Sequence of Histone deacetylase 1 (Q13547 whole entry): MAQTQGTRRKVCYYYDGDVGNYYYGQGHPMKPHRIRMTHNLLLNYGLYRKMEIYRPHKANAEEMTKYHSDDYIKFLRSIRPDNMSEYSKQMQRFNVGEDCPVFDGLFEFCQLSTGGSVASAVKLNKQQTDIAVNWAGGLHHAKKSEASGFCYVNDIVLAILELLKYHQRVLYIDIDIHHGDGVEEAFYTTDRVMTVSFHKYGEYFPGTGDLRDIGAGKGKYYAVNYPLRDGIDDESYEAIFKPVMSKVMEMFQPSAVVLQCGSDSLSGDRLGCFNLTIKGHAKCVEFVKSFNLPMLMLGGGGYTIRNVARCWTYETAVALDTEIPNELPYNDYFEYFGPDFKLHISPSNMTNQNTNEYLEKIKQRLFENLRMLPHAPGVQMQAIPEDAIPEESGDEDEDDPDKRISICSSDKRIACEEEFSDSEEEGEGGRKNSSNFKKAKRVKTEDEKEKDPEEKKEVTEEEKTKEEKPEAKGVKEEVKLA
Sequence of Histone deacetylase 11 (Q96DB2 whole entry): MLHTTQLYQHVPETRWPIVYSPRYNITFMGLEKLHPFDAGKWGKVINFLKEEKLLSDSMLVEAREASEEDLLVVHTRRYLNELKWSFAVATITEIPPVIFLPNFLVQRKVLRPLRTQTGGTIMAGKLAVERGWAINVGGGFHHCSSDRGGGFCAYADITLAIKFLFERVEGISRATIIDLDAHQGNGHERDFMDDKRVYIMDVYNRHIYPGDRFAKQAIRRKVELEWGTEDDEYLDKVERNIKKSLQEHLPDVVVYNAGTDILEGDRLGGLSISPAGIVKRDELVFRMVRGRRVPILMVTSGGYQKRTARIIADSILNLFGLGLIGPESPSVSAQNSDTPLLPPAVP
Sequence of Polyamine deacetylase HDAC10 (Q969S8 whole entry): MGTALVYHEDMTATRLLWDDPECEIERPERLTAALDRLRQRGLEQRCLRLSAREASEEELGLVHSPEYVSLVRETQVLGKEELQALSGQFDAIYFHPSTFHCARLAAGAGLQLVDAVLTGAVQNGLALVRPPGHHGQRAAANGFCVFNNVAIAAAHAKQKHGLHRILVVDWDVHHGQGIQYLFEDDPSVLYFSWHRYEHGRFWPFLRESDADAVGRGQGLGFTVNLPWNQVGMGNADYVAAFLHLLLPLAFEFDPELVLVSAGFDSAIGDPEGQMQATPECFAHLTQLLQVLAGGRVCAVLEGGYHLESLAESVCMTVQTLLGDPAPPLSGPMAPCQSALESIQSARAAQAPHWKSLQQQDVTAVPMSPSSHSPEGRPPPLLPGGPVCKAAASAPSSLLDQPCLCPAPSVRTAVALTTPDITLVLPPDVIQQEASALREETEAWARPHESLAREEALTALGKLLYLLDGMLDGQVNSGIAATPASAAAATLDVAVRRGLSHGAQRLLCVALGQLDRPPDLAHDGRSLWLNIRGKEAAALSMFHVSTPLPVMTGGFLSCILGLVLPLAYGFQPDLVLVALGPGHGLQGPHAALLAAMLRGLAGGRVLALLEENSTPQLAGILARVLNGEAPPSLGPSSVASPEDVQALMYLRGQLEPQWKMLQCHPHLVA

Structure (SMILES)	IC50 [1] [nM]	IC50 [2] [nM]	IC50 [13] [nM]	also measured
Nc1cc(F)ccc1NC(=O)c1ccc(CNC(=O)/C=C/c2cccnc2)cc1 [TUCIDINOSTAT]	1490	5770	–	IC50 [3]: 9850 nM; IC50 [4]: 240 nM; IC50 [5]: > 20000 nM; IC50 [6]: > 20000 nM; IC50 [7]: 1860 nM; IC50 [8]: 920 nM; IC50 [9]: 4570 nM; IC50 [10]: 2890 nM; IC50 [11]: 456 nM; IC50 [12]: > 5000 nM
O=C(CCCCCCN1C(=O)C/C(=C\c2ccccc2O)C1=O)NO	1720	1930	19.4	–
Nc1cc(F)ccc1NC(=O)CCCCCCN1C(=O)C/C(=C\c2ccccc2)C1=O	> 20000	> 20000	144	–
O=C(CCCCCCN1C(=O)C/C(=C\c2cccc(Cl)c2)C1=O)NO	380	1700	18.8	–
O=C(CCCCCCN1C(=O)C/C(=C\c2ccc(Cl)cc2)C1=O)NO	570	890	23.4	–
O=C(CCCCCCN1C(=O)C/C(=C\c2cccc(I)c2)C1=O)NO	910	1470	28.7	–
CC(C)c1ccc(/C=C2\CC(=O)N(CCCCCCC(=O)NO)C2=O)cc1	1350	1820	28.6	–
O=C(CCCCCCN1C(=O)C/C(=C\c2ccc(C(F)(F)F)cc2)C1=O)NO	1220	1830	33.8	–
Nc1cc(F)ccc1NC(=O)CCCCCN1C(=O)C/C(=C\c2ccccc2)C1=O	11100	> 20000	105	–
COc1cccc(/C=C2\CC(=O)N(CCCCCCC(=O)NO)C2=O)c1	400	920	18.5	–
O=C(CCCCCCN1C(=O)C/C(=C\c2ccc(Cl)c(Cl)c2)C1=O)NO	440	1690	27.9	–
COc1cc(/C=C2\CC(=O)N(CCCCCCC(=O)NO)C2=O)cc(OC)c1OC	1030	1710	27.5	–
COc1ccc(/C=C2\CC(=O)N(CCCCCCC(=O)NO)C2=O)cc1	500	890	13	–
O=C(CCCN1C(=O)C/C(=C\c2ccccc2)C1=O)NO	> 20000	> 20000	182	–
O=C(CCCCCCN1C(=O)C/C(=C\c2cccs2)C1=O)NO	540	910	25.1	–
CCOc1ccccc1/C=C1\CC(=O)N(CCCCCCC(=O)NO)C1=O	340	890	16.7	–
N#Cc1ccccc1/C=C1\CC(=O)N(CCCCCCC(=O)NO)C1=O	740	870	40.1	–
O=C(CCCCCCN1C(=O)C/C(=C\c2cccc(Br)c2)C1=O)NO	650	1060	19.1	–

Structure (SMILES)	IC50 [1] [nM]	IC50 [2] [nM]	IC50 [13] [nM]	also measured
CN(C)c1ccc(/C=C2\CC(=O)N(CCCCCCC(=O)NO)C2=O)cc1	920	1750	26.7	–
O=C(CCCCCN1C(=O)C/C(=C\c2ccccc2)C1=O)NO	1490	4270	32.2	–
O=C(CCCCCCN1C(=O)C/C(=C\c2ccccc2Cl)C1=O)NO	480	1440	19.3	–
O=C(CCCCCCN1C(=O)C/C(=C\c2cccc(F)c2)C1=O)NO	660	890	75.2	–
COc1ccc(Br)cc1/C=C1\CC(=O)N(CCCCCCC(=O)NO)C1=O	460	1130	78.1	–
CC(=O)O[C@@]12CO[C@@H]1C[C@H](O)[C@@]1(C)C(=O)[C@H](O)C3=C(C)[C@@H](OC(=O)[C@H](O)[C@@H](NC(=O)OC(C)(C)C)c4ccccc4)C[C@@](O)([C@@H](OC(=O)c4ccccc4)[C@H]21)C3(C)C [DOCETAXEL ANHYDROUS]	–	–	–	Activity [14]: Toxic; Activity [15]: Toxic; inhibition in vivo at 8 mg/kg [16]: 13.3%
C=C(CC(N)=O)C(N)=O	14800	9990	–	–
O=C(CCCCN1C(=O)C/C(=C\c2ccccc2)C1=O)NO	> 20000	> 20000	136	–
COc1ccc(/C=C2\CC(=O)N(CCCCCCC(=O)NO)C2=O)cc1OC	450	880	24.7	–
Cc1ccc(/C=C2\CC(=O)N(CCCCCCC(=O)NO)C2=O)cc1	310	2200	25.5	–
O=C(CCCCCCCN1C(=O)C/C(=C\c2ccccc2)C1=O)NO	1560	5010	25.2	–
O=C(CCCCCCC(=O)Nc1ccccc1)NO [VORINOSTAT]	–	–	–	Activity [17]: 73.76%; Activity [18]: Active
Nc1cc(F)ccc1NC(=O)CCCN1C(=O)C/C(=C\c2ccccc2)C1=O	> 20000	> 20000	231	–
Cc1ccccc1/C=C1\CC(=O)N(CCCCCCC(=O)NO)C1=O	710	930	21.7	–
O=C(CCCCCCN1C(=O)C/C(=C\c2ccccc2)C1=O)NO	500	820	12.9	–
O=C(NO)c1ccc(CN2C(=O)C/C(=C\c3ccccc3)C2=O)cc1	2540	7820	32.9	–
Nc1cc(F)ccc1NC(=O)CCCCN1C(=O)C/C(=C\c2ccccc2)C1=O	> 20000	> 20000	173	–

From ChEMBL document CHEMBL5512640, “Discovery of novel itaconimide-based derivatives as potent HDAC inhibitors for the efficient treatment of prostate cancer” (Eur J Med Chem, 2024)
